Measured values: patent US20260217746A1, “CRYSTALLINE FORMS OF ANTIOXIDANT COMPOUND” (Mitotech Ltd, priority 2023, published 2026)
Values belong to the molecule of their own block, whether it stands above or below them.

What was measured:
Format in all cases: physicochemical
[1] = Photodegradation of solid SkQ1 bromide under natural day/night illumination
Protocol: As a result, SkQ1 was stored in light protective packaging or a dark glass container. The crystalline form of SkQ1 bromide as prepared in Example 2C and was tested by placing 50 mg portions at room temperature in transparent plastic vials, under conditions of natural change of day and night illumination with indirect sunlight.

[2] = Resistance to gamma radiation (sterilization); details: sterilization by gamma radiation
[3] = Stability of crystalline SkQ1 chloride and iodide compared with SkQ1 bromide; details: crystals obtained by the same crystallization methods
From the text: Purity and stability parameters of obtained SkQ1 Cl and SkQ I were similar to such parameters of SkQ1 bromide.

[4] = Solubility in water and in protic solvents (observations during crystallization work)
Protocol: Attempts to reduce the concentration of ethanol and to use isopropanol were undertaken. SkQ1 bromide in an amount of 177 mg was added to an ethanol (1V)-ethyl acetate (5V) mixture. In another experiment, SkQ1 in an amount of 178 mg was added to an isopropanol (1V)-ethyl acetate (5V) mixture. […] To each of the above solutions, 5V ml of MTBE was added, initially oiling out the supersaturated solution. After leaving the solution overnight at room temperature, crystals were formed. This process with varying amounts of ethanol (from 0.274-0.574 V) led to similar results of solid formation after MTBE addition. Similarly, ethyl acetate was increased to 10V, with similar results of fine solid formation only after adding MTBE, but with lower yields. When ethanol solvent amounts were increased ton 1.174 V, crystallization occurred after adding MTBE, but yields were low.

[5] = Hygroscopicity of the isolated solid; details: non-crystalline solid as isolated
From the text: Hygroscopic solids are associated with numerous difficulties when attempting to use them in pharmaceutical compositions, including low stability and difficulty in handling. Crystallization of halide salts of SkQ1 by using a number of solvents, individually or in combination, was attempted.

photosensitivity ([1]; amorphous form, stored in light protective packaging or dark glass container): photosensitive | stability to gamma radiation ([2]; listed as oil form): degraded
SMILES: CC1=C(C)C(=O)C(CCCCCCCCCC[P+](c2ccccc2)(c2ccccc2)c2ccccc2)=CC1=O [Amorphous SkQ1 bromide, 2,3-dimethyl-1,4-benzoquinone-5-decyl-triphenylphosphonium bromide, reference compound]

stability parameters relative to SkQ1 bromide [3]: similar
SMILES: CC1=C(C)C(=O)C(CCCCCCCCCC[P+](c2ccccc2)(c2ccccc2)c2ccccc2)=CC1=O [SkQ1 Cl]

solubility in protic solvents ([4]; ethanol (1V)- or isopropanol (1V)-ethyl acetate (5V) mixture, room temperature, 0.5 hours): highly soluble | solubility in water ([4]; water): sparingly soluble | hygroscopicity [5]: hygroscopic | hygroscopicity ([5]; listed as SkQ1 bromide salt): highly hygroscopic
SMILES: CC1=C(C)C(=O)C(CCCCCCCCCC[P+](c2ccccc2)(c2ccccc2)c2ccccc2)=CC1=O [SkQ1 bromide, 2,3-dimethyl-1,4-benzoquinone-5-decyl-triphenylphosphonium bromide]

resistance to degradation, in particular photodegradation, compared to the previously known amorphous form ([1]; crystalline versus amorphous form): more resistant to degradation | stability to gamma radiation ([2]; listed as crystalline SkQ1): resistant to gamma radiation
SMILES: CC1=C(C)C(=O)C(CCCCCCCCCC[P+](c2ccccc2)(c2ccccc2)c2ccccc2)=CC1=O [crystalline form of SkQ1 bromide, 2,3-dimethyl-1,4-benzoquinone-5-decyl-triphenylphosphonium bromide]
sample photodegradation ([1]; 50 mg portions, room temperature, transparent plastic vials, natural day and night illumination with indirect sunlight, analyzed at 6 hours, 4 days, 1 month and 2 months): no degradation was found in any of the samples
